Data as given in ChEMBL document CHEMBL1949623, “Camphorsulfonic acid catalysed facile tandem double Friedlander annulation protocol for the synthesis of phenoxy linked bisquinoline derivatives and discovery of antitubercular agents” (Bioorg Med Chem Lett, 2012).
pIC50: −log10 of the molar value.

Test system: NIH3T3
Assay: Cytotoxicity against mouse NIH/3T3 cells assessed as cell viability after 48 hrs by MTT assay
Assay type: cell-based
Settings: NIH3T3, 48 h

Row | Structure (SMILES) | pIC50
1 | Clc1ccc2nc(-c3ccc(Oc4c(-c5ccc(Br)cc5)nc5ccc(Cl)cc5c4-c4ccccc4)cc3)cc(-c3ccccc3)c2c1 | 3.48
2 | Clc1ccc2nc(-c3ccc(Oc4c(-c5cccc(Br)c5)nc5ccc(Cl)cc5c4-c4ccccc4)cc3)cc(-c3ccccc3)c2c1 | 3.05
